Data reported in patent EP4644377A1, “LIPID COMPOUND FOR GENE DELIVERY AND LIPID NANOPARTICLE COMPRISING SAME” (NANJING CYBERNAX BIOMEDICAL TECHNOLOGY CO., LTD., priority 2022, dated 2024).

Assays:
[1] = Determination of total nucleic acid and encapsulation efficiency (Quant-iT RiboGreen RNA kit); format: physicochemical; conditions: LNP with RSV-mRNA, lipid ratio of formulation 1, N/P 6
Procedure: The content of nucleic acids in an LNP sample was determined through a Quant-iT™ RiboGreen® RNA detection kit (Thermofisher). The detection of total RNA concentration: 5 µl of to-be-detected sample was placed into 2 ml of ep tube, 245 µl of 1xTE Buffer was added, and the above materials were evenly mixed to obtain a "diluted sample". 100 µl of the above "diluted sample" was taken, 100 µl of 10% TritonX-100 solution was added, the above materials were sufficiently and evenly mixed, and then the obtained mixture was demulsified for 15 min in metal bath under the conditions of 37°C and 300 rpm; and 80 µl of 1xTE Buffer was added into an ELISA plate, 20 µl of demulsified sample was taken and added into the ELISA plate to be evenly mixed, and then 100 µl of fluorescence dye (2000-fold dilution) solution was added.
Detection of free RNA concentration: 90 µl of 1xTE Buffer was added into the ELISA plate, 10 µl of the above "diluted sample" was taken, and 100 µl of fluorescence dye (2000-fold dilution) solution was added.
Meanwhile, a series of standard solutions having different concentrations were set in the ELISA plate as quantitative standard curves. The samples were loaded onto the ELISA plate to detect fluorescence signals (with an excitation wavelength of 480 nm and an emission detection wavelength of 520). A corresponding RNA concentration was obtained after the fluorescence signal in each well was converted via the standard curve.
Calculation method of encapsulation efficiency: EE(%) = (Concentration of total mRNA−concentration of free mRNA)/(Concentration of total mRNA)∗100% [formula]

C57Bl/6 mice = test: Luciferase mRNA delivery in mice, IVIS chemiluminescence; format: in vivo
Procedure: The animal experiments were reviewed and approved by the Ethics Committee of Zhejiang Medical College and the Ethics Committee of Zhejiang University of Technology. 6- to 8-week-old male C57Bl/6 mice were randomly grouped with 3 mice in each group. The mice in each group received a lipid nanoparticle coating mRNA expressing a luciferase via tail vein injection at a dose of 0.25 mg/kg mouse body weight (calculated by the mass of coated mRNA). […] The mRNA delivery effect of the lipid nanoparticle is quantitatively compared through a total chemiluminiscence quantity (Total Flux p/s) of a mouse whole body within unit time (shown in Table 5).
Table 13 and Table 14 show whole body chemiluminescent signals when LNPs (formulation 2) composed of the lipids in some examples deliver Flue mRNA in mice. The delivery dose of Flue mRNA was 0.25 mg/kg. 6 h after LNP injection, 150 mg/kg of D-luciferin was intraperitoneally injected into the mice, and then the whole body chemiluminescent signals were collected in the IVIS imaging system after 10 min. […]

[2] = Particle size detection of LNP (Brookhaven NanoBrook Omni, DLS); format: physicochemical
Procedure: Step 1. Preparation of a lipid solution and a nucleic acid solution: unless otherwise specified, all aqueous solutions involved in examples were prepared from deionized water without nucleases. An ionizable lipid, a phospholipid (disaturated phosphatidylcholine (DSPC) or dioleoylphosphatidylethanolamine (DOPE)), cholesterol and a PEG lipid (DMG-PEG2000) were mixed in a molar ratio of 50/10/38.5/1.5 (containing DSPC, formulation 1) or 36.5/16/46.5/2.5 (containing DOPE, formulation 2) and dissolved into an ethanol solution. Meanwhile, a nucleic acid (a mass ratio of ionizable lipid/nucleic acid was 10/1) was dissolved into a citrate buffer solution of pH=3, so that a final volume ratio of the ethanol solution to the citrate solution was 1/3.
Step 2. Preparation of LNP by mixing the lipid solution with the nucleic acid solution: the lipid ethanol solution and the nucleic acid aqueous solution that were prepared in Step 1 were respectively put into a sterile syringe and placed in a Precision Nanosystem Ignite instrument, the extrusion flow speeds of the ethanol solution and the water phase solution were respectively set as 3 ml/min and 9 ml/min in instrument program settings. A microfluidic chip was inserted into the instrument and LNP preparation was initiated, and then a solution mixed by the chip was collected.
Step 2.1. Preparation of an LNP solution coating nucleic acid in a porous plate: a solution of an ionizable lipid, a phospholipid (DSPC or DOPE), cholesterol and a PEG lipid (DMG-PEG2000) in ethanol was added into each well of a 96-well deep plate, so that a molar ratio of four component lipids in each well was 50/10/38.5/1.5 (containing DSPC, formulation 1) or 36.5/16/46.5/2.5 (containing DOPE, formulation 2). Then, a citrate buffer solution (pH=3, the mass of nucleic acid added into each well was 1/10 that of the ionizable lipid in this well) that was three times as ethanol in volume and dissolved with a nucleic acid molecule was quickly added into the well plate through a multi-channel pipette or an automatic liquid dispensing system and rapidly mixed, so as to obtain the LNP solution coating nucleic acid.
Step 3. Purification of the LNP solution: the LNP solution collected in Step 2 or Step 2.1 was subjected to dialysis-concentration-filtration operations, so as to obtain a final LNP solution coating nucleic acid for subsequent testing.
The LNP solution coating nucleic acid obtained in Step 3 was diluted so that the final lipid concentration was between 0.01 mg/ml and 0.1 mg/ml. The diluted solution was added into a sample reservoir, and then subjected to particle size detection in a Brookhaven NanoBrook Omni instrument.

A549 cells = test: In vitro delivery of luciferase mRNA by LNPs, A549 cells; format: cell-based, human; conditions: 100 ng luciferase mRNA per well, 24 h; ratio to naked mRNA control; result in words
Procedure: (§1) Human embryonic kidney cells (293T cells) and human non-small cell lung cancer cell lines (A549 cells) were obtained from the Chinese Type Culture Collection Center and cultured in DMEM high glucose culture medium containing 10% fetal bovine serum under the environment of 37°C and 5% CO2. The cells were inoculated in a 96-well cell culture plate in a density of 32,000 cells per well. LNPs coating mRNA expressing luciferase (Trilink, USA) were taken and added into the wells at a dose of 100 ng of mRNA per well. Meanwhile, control wells were set on each culture plate, and 100 ng of naked mRNA that was not coated by LNPs was added into each well. The cell culture plate was placed in a cell incubator for 24 h of co-culture under the conditions of 37°C and 5% CO2, and then the transfection effect of mRNA was detected through a One-LumiTM firefly luciferase reporter gene detection kit. The transfection results of LNPs in 293T cells are shown in FIG. 1 to FIG. 6 and FIG. 13 (upper), and the transfection results of LNPs in A549 cells are shown in FIG. 7 to FIG. 12 and FIG. 13 (lower). The transfection efficiency is expressed as a ratio of chemiluminescent intensity of LNP group to chemiluminescent intensity of control group (direct delivery of naked luciferase mRNA that is not coated by LNP).

293T cells = test: In vitro delivery of luciferase mRNA by LNPs, 293T cells; format: cell-based, Human; conditions: 100 ng luciferase mRNA per well, 24 h; ratio to naked mRNA control; result in words
Procedure: as §1

[3] = LNP formulation 2 (SM102: formulation 1), luciferase mRNA 0.25 mg/kg, tail vein, C57Bl/6 mice, whole body signal 6 h after LNP, 10 min after D-luciferin 150 mg/kg i.p.
[4] = LNPs after coating mRNA (luciferase)
[5] = LNPs (formulation 2), Flue mRNA 0.25 mg/kg, tail vein injection, whole body signal 6 h after LNP injection, 10 min after 150 mg/kg D-luciferin i.p.

| SMILES | Chemiluminescent signal (p/s) (C57Bl/6 mice; [3]) | PDI [2, 4] | Particle size [2, 4] [nm·days] | Chemiluminescent signal (p/s) (C57Bl/6 mice; [5]) | further results |
| --- | --- | --- | --- | --- | --- |
| CCCCCCCCCCCOC(=O)CCCCCN(CCO)CCCCCCCC(=O)OC(CCCCCCCC)CCCCCCCC [SM102, heptadec-9-yl-8-((2-hydroxyethyl) (6-oxo-6-((undecyloxy)hexyl)amino) octanoate, reference compound] | 3.93E+09 | – | – | – | encapsulation efficiency [1]: 97.9%; Particle size ([2]; LNP with RSV-mRNA, lipid ratio of formulation 1, N/P 6): 96.1 nm |
| CC/C=C\C/C=C\C/C=C\C/C=C\C/C=C\CCCC(=O)N(CCCN(C)C)C(C(=O)NCCCCCCCCCCCCCC)C(C)(C)C (stereo not shown) [Lipid 157] | 4.26E+09 | – | – | – | transfection (delivery) efficiency of LNP in A549 cells (A549 cells): relatively high delivery efficiency; transfection (delivery) efficiency of LNP in 293T cells (293T cells): relatively high delivery efficiency |
| CCCCC/C=C\C/C=C\CCCCCCCC(=O)N(CCN(C)CCO)C(C(=O)NCCCCCCCCCCCCCC)C(C)(C)C (stereo not shown) [Lipid 195] | 1.43E+09 | 0.19 | 204.79 ± 3.09 | – | – |
| CCCCC/C=C\C/C=C\CCCCCCCC(=O)N(CCCN(CC)CC)C(C(=O)NCCCCCCCCCCCCCC)C(C)(C)C (stereo not shown) [Lipid 160] | 1.07E+10 | 0.23 | 201.12 ± 47.7 | – | – |
| CCCCCCCCC(CCCCCC)COC(=O)CCCCCCC(=O)N(CCCN(C)C)C(C(=O)NCCCCCCCC(=O)OC(CC)CCCCCCCC)C(C)(C)C (stereo not shown) [Lipid 431] | – | 0.26 | 114 ± 2.51 | 5.11E+10 | – |
| CCCCCCCCC(CC)OC(=O)CCCCCCCNC(=O)C(N(CCCN(C)C)C(=O)CCCCCCCCCC(=O)OC(CCCCCC)CCCCCC)C(C)(C)C (stereo not shown) [Lipid 407] | – | 0.18 | 97.4 ± 0.64 | 8.00E+10 | – |
| CCCCCCCCCCCCCC(=O)N(CCCN(C)CCO)C(C(=O)NCCCCCCCCCCCC)C(C)(C)C (stereo not shown) [Lipid 189] | 3.32E+08 | 0.19 | 188.99 ± 4.55 | – | – |
| CCCCCCCCCCCC(=O)N(CCCN(C)C)C(C(=O)NCCCOC(=O)CCCCCCCC)C(C)(C)C (stereo not shown) [Lipid 163] | 1.73E+09 | 0.17 | 200.94 ± 5.63 | – | – |
| CCCCCCCC(C)COC(=O)CCCCCCCNC(=O)C(N(CCCN(C)C)C(=O)CCCCCCCCCC(=O)OC(CCCCCC)CCCCCC)C(C)(C)C (stereo not shown) [Lipid 409] | – | 0.25 | 95 ± 0.75 | 3.08E+10 | – |
| CCCCCCCCCCCC(=O)N(CCCN(C)C)C(C(=O)NCCCCCCCC(=O)OC(CCCCCCCC)CCCCCCCC)C(C)(C)C (stereo not shown) [Lipid 234] | 1.16E+10 | 0.17 | 240.23 ± 1.39 | – | – |
| CCCCCCCCC(CCCCCCCC)OC(=O)CCCCCCCNC(=O)C(N(CCCN(C)C)C(=O)CCCCCCC(=O)OCC(C)CCCCCCC)C(C)(C)C (stereo not shown) [Lipid 420] | – | 0.22 | 110.3 ± 1.65 | 6.69E+09 | – |
| CCCCCCCC/C=C\CCCCCCCCNC(=O)C(N(CCCN(C)C)C(=O)CCCCCCC/C=C\C[C@H](O)CCCCCC)C(C)(C)C (stereo partly shown) [Lipid 16] | 6.94E+09 | 0.26 | 128.73 ± 1.97 | – | – |
| CCCCCCCC/C=C\CCCCCCCCOC(=O)CCC(=O)N(CCCN(CC)CC)C(C(=O)NCCCC(=O)OCCCCCCCC)C(C)(C)C (stereo not shown) [Lipid 226] | 9.30E+09 | 0.19 | 207.34 ± 2.23 | – | – |
| CCCCC/C=C\C/C=C\CCCCCCCC(=O)N(CCCN(C)C)C(C)C(=O)NCCCCCCCC(=O)OC(CCCCCCCC)CCCCCCCC (stereo not shown) [Lipid 949] | – | 0.19 | 115.8 ± 0.26 | 6.88E+05 | – |
| CCCCCCCCC(CC)OC(=O)CCCCCCC(=O)N(CCCN(C)C)C(C(=O)NCCCCCCOC(=O)C(CCCCCC)CCCCCCCC)C(C)(C)C (stereo not shown) [Lipid 406] | – | 0.17 | 95.9 ± 0.75 | 1.04E+11 | – |
| CCCCC/C=C\C/C=C\CCCCCCCC(=O)N(CCCN(C)C)C(C(=O)NCCCCCCCC(=O)OC(CCCCCCCC)CCCCCCCC)C(C)(C)C (stereo not shown) [Lipid 175] | 7.07E+09 | 0.18 | 178.88 ± 3.61 | – | delivery efficiency in mRNA mouse in vivo delivery (C57Bl/6 mice; result in words): high delivery efficiency |
| CCCCCCCCCCCC(=O)N(CCCN(CC)CC)C(C(=O)NCCCCCCCC(=O)OC(CCCCCCCC)CCCCCCCC)C(C)(C)C (stereo not shown) [Lipid 237] | 3.86E+09 | 0.14 | 234.57 ± 1.84 | – | – |
| CCCCC/C=C\C/C=C\CCCCCCCC(=O)N(CCCN(C)C)C(C(=O)NCCCCCCCC(=O)OC(CCCCCCCC)CCCCCCCC)C(C)C (stereo not shown) [Lipid 942] | – | 0.25 | 135.8 ± 2.13 | 8.15E+08 | – |
